Patent publication US20070218456A1, “CELLULAR ASSAYS FOR SIGNALING RECEPTORS” (INVITROGEN CORPORATION, priority 2006, published 2007)
Where two headings read alike, the source gives them in different places.

Experiments:
[1] = system: NFAT and CRE CHO-K1 cell lines; test: Transient transfection assay, NFAT-bla and CRE-bla CHO-K1, response to LPA; type: cell-based, Chinese hamster; conditions: 10 μM LPA; absence of transfected GPR23
Source text: (§1) To begin development of a GPR23 assay in GeneBLAzer® CellSensor™ cell lines (Invitrogen), GPR23 was first tested in a transient transfection assay in the NFAT-bla HEK (Catalog# K1179, Invitrogen), the CRE-bla HEK (Catalog# K1112, Invitrogen), the NFAT-bla CHO-K1 (Catalog# K1078, Invitrogen), the CRE-bla CHO-K1 (Catalog# K1129, Invitrogen), the NFAT-bla Jurkat CellSensor™ cell lines (Catalog# K1077, Invitrogen) and the CRE-bla Jurkat CellSensor™ cell lines (Catalog# K1134, Invitrogen). The hGPR23 expression plasmid was transfected into the cell lines. Lipofectamine 2000 (Invitrogen) was used at a ratio of 0.4 ug of DNA per every uL of Lipofectamine 2000 following manufacturer's directions. After 48 hours the cells were assayed for a response to 10 μM LPA.

GPR23 [2] = target: T1, GPR23 (Homo sapiens, UniProt Q99677); test: LPA response of stably transfected GPR23-CRE-bla HEK pool; type: cell-based; design: expressed in transfected cells; host or cells: CellSensor CRE-bla HEK (Invitrogen K1112), stably selected pool
T1 sequence (Q99677 whole entry): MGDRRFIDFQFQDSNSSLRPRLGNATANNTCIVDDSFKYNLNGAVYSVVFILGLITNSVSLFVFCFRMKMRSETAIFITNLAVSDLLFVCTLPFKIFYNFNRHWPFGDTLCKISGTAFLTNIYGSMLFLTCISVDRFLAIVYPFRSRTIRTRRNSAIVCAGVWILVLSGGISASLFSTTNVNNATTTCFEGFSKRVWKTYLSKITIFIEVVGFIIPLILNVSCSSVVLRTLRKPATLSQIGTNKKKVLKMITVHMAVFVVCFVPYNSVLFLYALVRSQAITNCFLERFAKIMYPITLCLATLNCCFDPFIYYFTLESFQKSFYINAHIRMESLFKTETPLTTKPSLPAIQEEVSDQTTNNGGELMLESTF
Protocol: Assay construction continued in the NFAT-bla and CRE-bla, HEK and Jurkat CellSensor™ cell lines. These cell lines were taken to the point of stably selected pools at which point they were tested for a response to LPA. Only the stably transfected GPR23-CRE-bla HEK pool gave a response to LPA. The response was <1.5 fold but reproducible.

GPR23 [3] = test: Perkin Elmer LANCE cAMP assay on T-REx-GPR23-CHO-K1 clones; type: cell-based, human; conditions: un-induced, read-out: LPA EC50 (cAMP)
Protocol: (§2) Two inducible T-RExTM-GPR23-CHO-K1 clones and a parental control (T-RExTM-CHO-K1) were tested using the Perkin Elmer LANCE cAMP assay. The cells were serum starved and induced in growth medium +/-1 μg/ml tetracycline +100 ng/ml pertussis toxin without FBS for 24 hrs prior to the assay. The cells were then harvested using […] assayed for LPA responsiveness using the Perkin Elmer Lance assay according to the manufacture's instructions.

hGPR23 = test: LPA dose response on hGPR23-CRE-bla CHO-K1 selected pool; type: cell-based, human; conditions: 5 hrs stimulation
Source text: An attempt was made to develop a GPR23 assay by stably expressing a human GPR23 (hGPR23) in a CRE-bla CHO-K1 cell line. The CRE-bla CHO-K1 cell line has a non-GPR23 specific endogenous response to LPA (see Example 18), but by adding the human GPR23 to the cells it could have been possible to increase the LPA responsiveness of these cells or create a constitutively active cell line that could be used to screen for inverse agonists of the hGPR23 receptor. The hGPR23 expression plasmid was transfected into the CRE-bla CHO-K1 cell line. Lipofectamine 2000 (Invitrogen) was used at a ratio of 0.4 ug of DNA per every uL of Lipofectamine 2000 following manufacturer's directions.
(§3) A stable pool was selected using Zeocin. LPA dose response on the hGPR23-CRE-bla CHO-K1 selected pool and CRE-bla CHO-K1 cell line was performed. The cells were plated at 50,000 cells per well in a 96 well assay plate in OptiMEM+0.5% FBS and placed at 37° C. 5% CO2 overnight. The cells were then stimulated with a four fold dilution series of LPA in DMEM+0.1% BSA for 5 hrs. and loaded with substrate for 2 hrs.

HEK cells = test: Transient transfection assay, NFAT-bla and CRE-bla HEK, response to LPA; type: cell-based, human; conditions: 10 μM LPA
Source text: as §1

GPR23 [4] = test: LPA responsiveness of T-REx-GPR23 CRE-bla-CHO-K1 clone H6-E2; type: cell-based, human; conditions: un-induced cells
Protocol: (§4) The cells were plated at 20,000 cells per well in a 384 well black walled clear bottom tissue culture assay plate in complete media (DMEM+10% FBS). The plates were then placed at 37° C. 5% CO2 for 6 hrs to allow the cells to attach to the assay plate. The complete media was then removed from the plate and replaced with assay media (DMEM+0.1% BSA) containing 100 ng/ml pertussis toxin and 0.5% DMSO, with or without 10 μg/ml doxycycline. The plates were placed at 37° C. 5% CO2 for 16 hrs to allow the induced expression of the GPR23 receptor. The cells were then stimulated for five hours with a four fold dilution series of LPA starting at 1 μM. The cells were then loaded with LiveBLAzer™-FRET B/G substrate (2 μM) containing solution D for 2 hrs.

T-REx™-CHO-K1 = test: Perkin Elmer LANCE cAMP assay on parental T-REx-CHO-K1; type: cell-based, Chinese hamster; conditions: read-out: LPA EC50 (cAMP)
Protocol: as §2

CRE-bla CHO-K1 cell line = test: LPA dose response on CRE-bla CHO-K1 cell line; type: cell-based, Chinese hamster; conditions: CRE-bla CHO cells; 5 hrs stimulation
Protocol: as §3

Jurkat cells = test: Transient transfection assay, NFAT-bla and CRE-bla Jurkat, response to LPA; type: cell-based; conditions: 10 μM LPA
Source text: as §1

GPR23 [5] = target: T1, GPR23; test: LPA responsiveness of T-REx-GPR23 CRE-bla-CHO-K1 clone H6-E2; type: cell-based; design: expressed in transfected cells; host or cells: CHO-K1 with tet repressor (T-REx); clones E1 and H6, later CRE-bla subclone H6-E2
Protocol: as §4

GPR23 [6] = target: T1, GPR23; test: Perkin Elmer LANCE cAMP assay on T-REx-GPR23-CHO-K1 clones; type: cell-based; design: expressed in transfected cells; host or cells: CHO-K1 with tet repressor (T-REx); clones E1 and H6, later CRE-bla subclone H6-E2; conditions: read-out: LPA EC50 (cAMP)
Protocol: as §2

Substance: 1 or 2-acyl-sn-glycero-3-phosphate [LPA]
- response to LPA [1]: positive response
- response to LPA (GPR23 [2]): < 1.5 fold
- EC50 (GPR23 [3]; E1 clone): 2000 nM
- EC50 (GPR23 [3]; H6 clone): 1500 nM
- EC50 (hGPR23): 258 nM
- response to LPA (HEK cells; GPR23 transfected CRE-bla HEK cell line): only a small response
- response to LPA (HEK cells; endogenous (untransfected)): no endogenous response
- response of the cells to LPA (GPR23 [4]): 9 fold
- EC50 (T-REx™-CHO-K1; parent induced (1 μg/ml tetracycline)): 915 nM
- EC50 (T-REx™-CHO-K1; parent, un-induced): 5000 nM
- EC50 (CRE-bla CHO-K1 cell line): 239 nM
- response to LPA (Jurkat cells; GPR23 transfected cells): no response
- response to LPA (Jurkat cells; endogenous (untransfected)): no endogenous response
- response of the cells to LPA (GPR23 [5]; induced cells): 2.3 fold
- EC50 (GPR23 [5]; induced cells (10 μg/ml doxycycline, 16 hrs), LPA five hours): 2.3 nM
- EC50 (GPR23 [6]; E1 clone induced (1 μg/ml tetracycline)): 30.3 nM
- EC50 (GPR23 [6]; H6 induced (1 μg/ml tetracycline)): 13.8 nM
